Measurements as given in patent US4652573A, “Calcium antagonist N-hetero ester 1,4-dihydropyridines” (Nelson Research & Development Co., priority 1985, dated 1987).

Columns and labels:
[1] = molecular target: T1, DHP Site of the Calcium Channel (Oryctolagus cuniculus, UniProt P07293); test: Binding Assay for Drugs Acting at the DHP Site of the Calcium Channel (3H-nitrendipine displacement, washed rabbit skeletal muscle membranes); details: read-out: KI (moles)
T1 construct: Washed rabbit skeletal muscle membranes; from tissue; host or cells: rabbit skeletal muscle, washed membranes (fraction 2-8×)
T1 sequence (P07293 whole entry): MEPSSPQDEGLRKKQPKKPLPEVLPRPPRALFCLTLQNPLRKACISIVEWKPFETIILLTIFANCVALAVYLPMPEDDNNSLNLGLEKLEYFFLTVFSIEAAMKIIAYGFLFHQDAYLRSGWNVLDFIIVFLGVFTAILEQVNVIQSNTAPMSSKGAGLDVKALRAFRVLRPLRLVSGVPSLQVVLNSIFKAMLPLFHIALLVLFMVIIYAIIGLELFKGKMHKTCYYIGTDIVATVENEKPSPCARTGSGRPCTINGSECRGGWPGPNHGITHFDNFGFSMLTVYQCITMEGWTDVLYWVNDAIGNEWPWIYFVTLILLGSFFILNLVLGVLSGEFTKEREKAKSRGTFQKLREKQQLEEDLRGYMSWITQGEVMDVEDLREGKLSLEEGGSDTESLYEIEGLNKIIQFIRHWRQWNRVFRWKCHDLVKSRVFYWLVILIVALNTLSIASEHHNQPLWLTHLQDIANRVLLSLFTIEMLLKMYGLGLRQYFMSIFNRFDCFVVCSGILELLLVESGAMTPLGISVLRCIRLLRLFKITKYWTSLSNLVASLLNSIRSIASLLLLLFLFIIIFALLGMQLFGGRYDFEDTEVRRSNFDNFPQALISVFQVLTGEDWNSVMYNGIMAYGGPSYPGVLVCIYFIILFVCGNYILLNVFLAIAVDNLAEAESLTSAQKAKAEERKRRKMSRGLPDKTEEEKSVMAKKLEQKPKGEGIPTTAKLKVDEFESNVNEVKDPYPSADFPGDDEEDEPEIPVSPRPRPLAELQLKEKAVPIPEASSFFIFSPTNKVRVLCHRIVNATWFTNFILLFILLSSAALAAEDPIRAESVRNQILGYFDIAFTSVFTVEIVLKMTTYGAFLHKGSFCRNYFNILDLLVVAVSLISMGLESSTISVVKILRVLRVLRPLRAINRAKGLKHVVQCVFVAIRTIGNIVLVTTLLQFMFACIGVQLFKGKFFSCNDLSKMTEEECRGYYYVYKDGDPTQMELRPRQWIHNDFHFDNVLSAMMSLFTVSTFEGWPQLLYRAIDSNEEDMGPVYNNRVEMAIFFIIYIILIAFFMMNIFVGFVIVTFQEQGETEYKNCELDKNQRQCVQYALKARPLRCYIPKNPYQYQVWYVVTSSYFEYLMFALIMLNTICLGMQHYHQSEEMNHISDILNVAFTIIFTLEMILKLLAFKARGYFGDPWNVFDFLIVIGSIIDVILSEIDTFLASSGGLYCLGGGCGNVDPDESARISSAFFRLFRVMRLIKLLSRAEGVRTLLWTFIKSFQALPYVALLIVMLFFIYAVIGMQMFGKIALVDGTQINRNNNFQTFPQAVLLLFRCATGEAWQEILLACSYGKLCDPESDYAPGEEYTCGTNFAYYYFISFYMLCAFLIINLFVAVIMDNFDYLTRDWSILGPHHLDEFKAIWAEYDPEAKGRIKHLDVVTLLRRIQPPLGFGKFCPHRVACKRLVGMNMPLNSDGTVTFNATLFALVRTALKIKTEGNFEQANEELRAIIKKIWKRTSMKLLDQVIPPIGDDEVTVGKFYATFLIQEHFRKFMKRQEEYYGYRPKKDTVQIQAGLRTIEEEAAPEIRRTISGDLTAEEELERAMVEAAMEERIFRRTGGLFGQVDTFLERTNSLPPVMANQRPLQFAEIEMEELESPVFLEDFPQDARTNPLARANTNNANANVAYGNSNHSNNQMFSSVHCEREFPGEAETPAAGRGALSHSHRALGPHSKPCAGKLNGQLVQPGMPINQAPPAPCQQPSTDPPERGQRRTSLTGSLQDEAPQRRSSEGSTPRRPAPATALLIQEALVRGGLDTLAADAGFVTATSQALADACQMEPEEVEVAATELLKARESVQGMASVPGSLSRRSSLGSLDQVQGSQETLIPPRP
Experimental: A. Binding Assay for Drugs Acting at the DHP Site of the Calcium Channel.
The assay was carried out as described by Fairhurst et al., Life Sciences, 32, 1331 (1983). Washed rabbit skeletal muscle membranes (fraction 2-8×) were incubated for 30 minutes at 25° C. in 2 ml final volume of medium containing 12.5 mM HEPES buffer pH 7.4 and 0.5×10^-9 M ^3 H-nitrendipine having a specific activity of approximately 17 Ci/m mol.
The incubation tubes were rapidly chilled in ice and the contents filtered through Whatman GF/B filters on a Millipore manifold, and the filters washed with 2×10 ml ice-cold HEPES buffer. The filters were placed in scintillation counting vials with 8 ml of Cytoscint cocktail, disrupted mechanically by shaking for 30 minutes and counted.
Drugs which interact at the DHP site will reduce this specific binding in a dose-dependent manner. The assays for the compounds of this invention were made with logarithmically spaced concentrations, the data were plotted on a probit-concentration plot, and the IC50 read off. The KI of the drug was calculated by standard techniques.

[2] = test system: spontaneous hypertensive rats (SHR); test: Hypotensive Activity: systolic arterial blood pressure, indirect tail cuff method, oral administration; assay type: in vivo, rat; details: oral 10 m mol/Kg in polyethylene glycol, positive = fall; for Mean Change in Blood Pressure (Pressure before Administration minus pressure after Administration mm Hg) 10 min: 10 min after administration; for Mean Change in Blood Pressure (Pressure before Administration minus pressure after Administration mm Hg) 20 min: 20 min after administration; for Mean Change in Blood Pressure (Pressure before Administration minus pressure after Administration mm Hg) 30 min: 30 min after administration; for Mean Change in Blood Pressure (Pressure before Administration minus pressure after Administration mm Hg) 60 min: 60 min after administration; for Mean Change in Blood Pressure (Pressure before Administration minus pressure after Administration mm Hg) 90 min: 90 min after administration; for Mean Change in Blood Pressure (Pressure before Administration minus pressure after Administration mm Hg) 120 min: 120 min after administration
Experimental: Systolic arterial blood pressure was measured with the indirect tail cuff method in spontaneous hypertensive rats (SHR). The change in baseline pressure (170-210 mm Hg) was recorded at various time points following oral administration of 10 m mol/Kg of the test compound in polyethylene glycol.

Structure (SMILES)	Ki [1]	Mean Change in Blood Pressure (Pressure before Administration minus pressure after Administration mm Hg) 10 min [2]	Mean Change in Blood Pressure (Pressure before Administration minus pressure after Administration mm Hg) 20 min [2]	Mean Change in Blood Pressure (Pressure before Administration minus pressure after Administration mm Hg) 30 min [2]	Mean Change in Blood Pressure (Pressure before Administration minus pressure after Administration mm Hg) 60 min [2]	Mean Change in Blood Pressure (Pressure before Administration minus pressure after Administration mm Hg) 90 min [2]	Mean Change in Blood Pressure (Pressure before Administration minus pressure after Administration mm Hg) 120 min [2]
COC(=O)C1=C(C)NC(C)=C(C(=O)OCCN2C(=O)c3ccccc3C2=O)C1c1cccc([N+](=O)[O-])c1 (stereo not drawn) [Example 2, 2,6-dimethyl-3-(2-phthalimidocarbethoxy)-4-(3-nitrophenyl)-5-carbomethoxy-1,4-dihydropyridine]	0.7 nM	9 mm Hg	10 mm Hg	10 mm Hg	6 mm Hg	0 mm Hg	0 mm Hg
CC1=C(C(=O)OCCN2C(=O)c3ccccc3C2=O)C(c2cccc([N+](=O)[O-])c2)C(C(=O)OCCN2C(=O)c3ccccc3C2=O)=C(C)N1 [Example 4, 2,6-dimethyl-3,5-di(2-phthalimidocarbethoxy)-4-(3-nitrophenyl)-1,4-dihydropyridine]	2.5 nM	9 mm Hg	8 mm Hg	14 mm Hg	11 mm Hg	14 mm Hg	10 mm Hg
COC(=O)C1=C(C)NC(C)=C(C(=O)OCCN2Cc3ccccc3C2)C1c1cccc([N+](=O)[O-])c1 (stereo not drawn) [Example 8, 2,6-Dimethyl-3-(2-isoindolinylcarbethoxy)-4-(3-nitrophenyl)-5-carbomethoxy-1,4-dihydropyridine]	3.5 nM	36 mm Hg	30 mm Hg	32 mm Hg	16 mm Hg	4 mm Hg	2 mm Hg
COC(=O)C1=C(C)NC(C)=C(C(=O)OC)C1c1ccccc1[N+](=O)[O-] [Nifedipine, nifedipine, reference compound]		37 mm Hg	36 mm Hg	20 mm Hg	15 mm Hg	4 mm Hg	4 mm Hg
COC(=O)C1=C(C)NC(C)=C(C(=O)OCCN2CCCC2=O)C1c1cccc([N+](=O)[O-])c1 (stereo not drawn) [Example 10, 2,6-Dimethyl-3-[2-(2-oxopyrrolidino)carbethoxy]-4-(3-nitrophenyl)-5-carbomethoxy-1,4-dihydropyridine]	270 nM	-17 mm Hg	-5 mm Hg	11 mm Hg	7 mm Hg	6 mm Hg	7 mm Hg
COC(=O)C1=C(C)NC(C)=C(C(=O)OCCN(C)Cc2ccccc2)C1c1cccc([N+](=O)[O-])c1 (stereo not drawn) [Nicardipine, nicardipine, reference compound]	1.1 nM						
COC(=O)C1=C(C)NC(C)=C(C(=O)OCCN2C(=O)CCC2=O)C1c1cccc([N+](=O)[O-])c1 (stereo not drawn) [Example 9, 2,6-Dimethyl-3-(2-succimimidocarbethoxy)-4-(3-nitrophenyl)-5-carbomethoxy-1,4-dihydropyridine]	150 nM	36 mm Hg	10 mm Hg	5 mm Hg	3 mm Hg	19 mm Hg	11 mm Hg
CC1=C(C(=O)OCCn2c(C)ccc2C)C(c2cccc([N+](=O)[O-])c2)C(C(=O)OCCn2c(C)ccc2C)=C(C)N1 [Example 12, 2,6-Dimethyl-3,5-(2,5-dimethylpyrrolylcarbethoxy)-4-(3-nitrophenyl)-1,4-dihydropyridine]	2.5 nM						
COC(=O)C1=C(C)NC(C)=C(C(=O)OCCN2C(=O)c3ccccc3C2=O)C1c1cccc(C(F)(F)F)c1 (stereo not drawn) [Example 3, 2-6-dimethyl-3-(2-phthalimidocarbethoxy)-4-(3-trifluoromethylphenyl)-5-carbomethoxy-1,4-dihydropyridine]	48 nM						
COC(=O)C1=C(C)NC(C)=C(C(=O)OCCCCCCN2C(=O)c3ccccc3C2=O)C1c1cccc([N+](=O)[O-])c1 (stereo not drawn) [Example 6, 2,6-Dimethyl-3-(6-phthalimidocarbohexoxy)-4-(3-nitrophenyl)-5-carbomethoxy-1,4-dihydropyridine]	1.9 nM	18 mm Hg	10 mm Hg	12 mm Hg	14 mm Hg	2 mm Hg	0 mm Hg
COC(=O)C1=C(C)NC(C)=C(C(=O)OCCN2Cc3ccccc3C2=O)C1c1cccc([N+](=O)[O-])c1 (stereo not drawn) [Example 7, 2,6-Dimethyl-3-(2-phthalimidinocarbethoxy)-4-(3-nitrophenyl)-5-carbomethoxy-1,4-dihydropyridine]	20 nM	14 mm Hg	19 mm Hg	10 mm Hg	10 mm Hg	20 mm Hg	19 mm Hg
COC(=O)C1=C(C)NC(C)=C(C(=O)OCCN2C(=O)c3ccccc3C2=O)C1c1cccc(C)c1 (stereo not drawn) [Example 1, 2,6-dimethyl-3-(2-phthalimidocarbethoxy)-4-(3-methylphenyl)-5-carbomethoxy-1,4-dihydropyridine]	19.7 nM	17 mm Hg	10 mm Hg	4 mm Hg	-2 mm Hg	5 mm Hg	-4 mm Hg
COC(=O)C1=C(C)NC(C)=C(C(=O)OCCCN2C(=O)c3ccccc3C2=O)C1c1cccc([N+](=O)[O-])c1 (stereo not drawn) [Example 5]	4.8 nM	-5 mm Hg	-14 mm Hg	-10 mm Hg	-6 mm Hg	-6 mm Hg	-5 mm Hg
